Data set [1] has as its system primary AML patient samples. The data set is described as follows: Apoptosis by flow cytometry in primary AML patient samples co-cultured with HS27 stromal cells. The data set is classed as cell-based, human. An excerpt:
Cell lines MV4;11, NOMO-1, KG-1a, NB-4, and HEL were obtained from the German Collection of Microorganisms and Cell Culture (DSMZ); Kasumi-1 and U937 were obtained from the American Type Culture Collection (ATCC); MOLM-13 was a gift from Robert Arceci (Johns Hopkins); HS-27 was a gift from Kathrin Bernt (University of Colorado). AML cell lines were maintained in RPMI medium (HyClone) supplemented with 10% FBS and penicillin/streptomycin (cRPMI). Cell line identities were confirmed using short tandem repeat microsatellite loci analysis. HS-27 stromal cells were maintained in DMEM with 10% FBS and penicillin/streptomycin prior to co-culture. De-identified cord blood samples and primary patient myeloblasts apheresed from peripheral blood were obtained from the University of Colorado after written informed consent in accordance with the Declaration of Helsinki. Experiments conformed to regulatory standards as approved by the Colorado Multiple Institutional Review Board. AML patient samples were maintained as previously described, with HS-27 stromal co-culture for apoptosis and cell cycle experiments.
To assess apoptosis, AML cell lines were cultured at 3 × 10^5 cells, and 1 × 10^6 AML patient blasts were co-cultured with 3.5 × 10^5 HS27 cells per condition in 24 well plates, and treated for 72 hours. Harvested cells were washed, resuspended in PBS containing 1 μM YO-PRO®-1 iodide (Invitrogen) and 1.5 μM propidium iodide (PI) (Invitrogen), and incubated on ice for 15–20 minutes. […] Flow cytometry data were analyzed using Modfit Cell Cycle Analysis software (Verity Software House). In replating assays, cells were similarly plated and treated, then harvested cells were washed twice, and 1.5 × 10^4 viable cells/ml were cultured in cRPMI for six days. Six days after replating, viable myeloblast count was determined by trypan blue exclusion using a Cedex XS Analyzer (Roche).
(Flow cytometry measures light scatter and fluorescence of single cells or particles in a stream.)

Data set [2] deals with T1, TrkA (Homo sapiens, UniProt P04629). The data set is described as follows: Protein kinase profiling panel (Carna Biosciences), TRKA. The conditions noted are these: read-out: Percent Inhibition at 46 nM, TRKA.
T1 sequence (P04629 33-796): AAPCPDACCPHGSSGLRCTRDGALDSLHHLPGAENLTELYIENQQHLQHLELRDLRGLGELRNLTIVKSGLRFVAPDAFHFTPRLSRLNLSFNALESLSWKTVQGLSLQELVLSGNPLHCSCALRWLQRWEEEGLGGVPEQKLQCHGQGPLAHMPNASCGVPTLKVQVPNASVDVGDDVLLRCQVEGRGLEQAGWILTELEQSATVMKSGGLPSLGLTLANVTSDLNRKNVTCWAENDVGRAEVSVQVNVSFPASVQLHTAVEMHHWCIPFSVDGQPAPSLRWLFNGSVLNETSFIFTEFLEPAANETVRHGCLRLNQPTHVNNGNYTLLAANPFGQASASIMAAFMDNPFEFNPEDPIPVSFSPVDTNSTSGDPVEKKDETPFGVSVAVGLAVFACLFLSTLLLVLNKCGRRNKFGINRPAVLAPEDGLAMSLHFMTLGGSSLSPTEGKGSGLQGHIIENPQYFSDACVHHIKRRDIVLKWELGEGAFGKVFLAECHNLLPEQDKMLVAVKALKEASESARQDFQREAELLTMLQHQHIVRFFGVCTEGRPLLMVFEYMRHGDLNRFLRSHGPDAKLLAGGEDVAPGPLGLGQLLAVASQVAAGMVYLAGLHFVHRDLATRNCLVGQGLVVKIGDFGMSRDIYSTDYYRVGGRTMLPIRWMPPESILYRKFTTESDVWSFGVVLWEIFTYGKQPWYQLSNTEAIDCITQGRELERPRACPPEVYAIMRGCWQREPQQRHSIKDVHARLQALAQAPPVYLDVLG
Data set [3] has as its system primary AML patient samples. Briefly: Colony formation in methylcellulose, primary AML patient samples. The data set is classed as cell-based, human. On the procedure:
Cell lines were plated at a density of 1000 cells/ml in 0.35% agar over 0.5% agar base layer. […] Colonies were grown for 14 (NOMO-1, MV4;11, MOLM-13) or 21 days (Kasumi-1) prior to staining with 1 mg/ml nitrotetrazolium blue (Sigma-Aldrich). Treatment-containing medium was renewed twice weekly. […] Human mononuclear cells were isolated from umbilical cord blood samples using Ficoll-Paque PLUS (GE Healthcare Life Sciences). […] Cell line and patient sample colonies were counted using a GelCount colony counter (Oxford Optronix) and cord blood colonies were manually counted in a blinded, non-biased manner.

Data set [4] has as its system AML cell lines. Briefly: Cell cycle analysis (propidium iodide, ModFit) in AML cell lines. As to conditions: significant at the 300 nM dose, 72 hours.
Data set [5] concerns Erk1/2, Akt and Stat5 phosphorylation. The data set is described as follows: Downstream signaling immunoblot in Flt3-ITD cell lines. It is filed as cell-based. The conditions noted are these: 50 nM, two hour treatment. As for the experimental part: Whole cell lysates were prepared and proteins were resolved on Tris-Glycine SDS-PAGE gels (Invitrogen) and transferred onto nitrocellulose membranes. Membranes were blocked in tris-buffered saline with 0.1% Tween-20 containing 5% bovine serum albumin (when probing for Flt3) or 5% milk (when probing for all other molecules). For immunoprecipitation assays, cells were plated and treated as above, then treated with pervanadate for 10 minutes prior to cell lysis to stabilize the phosphorylation status. With the use of pervandate, it was not necessary to stimulate cells with exogenous Mer or Flt3 ligands (other than from fetal bovine serum) to detect phosphorylated Mer and Flt3 proteins. Anti-Mer antibody or anti-Flt3 and rec-Protein G-sepharose beads (Invitrogen) were added and lysates were incubated overnight on a rocking platform. Beads were washed and eluted proteins were resolved as above. Immunoprecipitate membranes were probed with an anti-phospho-Mer or anti-phospho-Flt3 antibody. After visualization, membranes were stripped and reprobed for total protein. […]

Data set [6] concerns Flt3-ITD cell lines. The data set is described as follows: Apoptosis by flow cytometry, Flt3-ITD cell lines. The data set is classed as cell-based. As to conditions: 72 hours, range over Flt3-ITD cell lines. On the procedure: To assess apoptosis, AML cell lines were cultured at 3 × 10^5 cells, and 1 × 10^6 AML patient blasts were co-cultured with 3.5 × 10^5 HS27 cells per condition in 24 well plates, and treated for 72 hours. Harvested cells were washed, resuspended in PBS containing 1 μM YO-PRO®-1 iodide (Invitrogen) and 1.5 μM propidium iodide (PI) (Invitrogen), and incubated on ice for 15–20 minutes. […] . Flow cytometry data were analyzed using Modfit Cell Cycle Analysis software (Verity Software House). In replating assays, cells were similarly plated and treated, then harvested cells were washed twice, and 1.5 × 10^4 viable cells/ml were cultured in cRPMI for six days. Six days after replating, viable myeloblast count was determined by trypan blue exclusion using a Cedex XS Analyzer (Roche).

Data set [7] has as its target TRKC (Homo sapiens, UniProt Q16288). The data set is described as follows: Protein kinase profiling panel (Carna Biosciences), TRKC. As to conditions: read-out: Percent Inhibition at 46 nM, TRKC.
A short description of data set [8]: Pharmacokinetics in a murine model. The conditions noted are these: mouse, in vivo, po.
Data set [9] concerns MV4;11 cell line. The data set is described as follows: Replating (rebound growth) assay, MV4;11. As to conditions: MV4;11, 50 nM for 72 hours then washed, replated at 1.5 × 10^4 viable cells/ml.
Method: To assess apoptosis, AML cell lines were cultured at 3 × 10^5 cells, and 1 × 10^6 AML patient blasts were co-cultured with 3.5 × 10^5 HS27 cells per condition in 24 well plates, and treated for 72 hours. […] Flow cytometry data were analyzed using Modfit Cell Cycle Analysis software (Verity Software House). In replating assays, cells were similarly plated and treated, then harvested cells were washed twice, and 1.5 × 10^4 viable cells/ml were cultured in cRPMI for six days. Six days after replating, viable myeloblast count was determined by trypan blue exclusion using a Cedex XS Analyzer (Roche).
For data set [10], the target named is T1, TrkA. Briefly: Microfluidic capillary electrophoresis (MCE) enzymatic assay, TrkA.
Method: Microfluidic capillary electrophoresis (MCE) enzyme (40 μL, 4 nM Mer) and allowed to incubate for
assay 10 min followed by addition of 32 μL of substrate mix
polypropylene microplate with a final volume of 50μL in reads total, on an EZReader, using upstream voltage =
50mM Hepes, pH 7.4 containing 10mM MgCl2, 1.0 mM −2250V, downstream voltage = −500V and pressure =
DTT, 0.01% Triton X-100, 0.1% bovine serum albumin −1.0 psi (sip time 0.2 sec, buffer 30 sec). The steady-state
(BSA) (MCE Buffer), with 1.0 μM fluorescent substrate velocity was analyzed by linear regression of the peptide
and ATP at Km for each enzyme (Supplemental Table 1). as percent-conversion/min, and a plot of nM compound
70 mM EDTA. Phosphorylated and unphosphorylated using GraphPad Prism (v5.01, GraphPad Software), Y =
Reader software. velocity, X = inhibitor concentration).
Morrison Tight-Binding Method (35).
2.0 nM Mer, and 1.0 μM peptide substrate.

TRKC, sequence (Q16288 32-839): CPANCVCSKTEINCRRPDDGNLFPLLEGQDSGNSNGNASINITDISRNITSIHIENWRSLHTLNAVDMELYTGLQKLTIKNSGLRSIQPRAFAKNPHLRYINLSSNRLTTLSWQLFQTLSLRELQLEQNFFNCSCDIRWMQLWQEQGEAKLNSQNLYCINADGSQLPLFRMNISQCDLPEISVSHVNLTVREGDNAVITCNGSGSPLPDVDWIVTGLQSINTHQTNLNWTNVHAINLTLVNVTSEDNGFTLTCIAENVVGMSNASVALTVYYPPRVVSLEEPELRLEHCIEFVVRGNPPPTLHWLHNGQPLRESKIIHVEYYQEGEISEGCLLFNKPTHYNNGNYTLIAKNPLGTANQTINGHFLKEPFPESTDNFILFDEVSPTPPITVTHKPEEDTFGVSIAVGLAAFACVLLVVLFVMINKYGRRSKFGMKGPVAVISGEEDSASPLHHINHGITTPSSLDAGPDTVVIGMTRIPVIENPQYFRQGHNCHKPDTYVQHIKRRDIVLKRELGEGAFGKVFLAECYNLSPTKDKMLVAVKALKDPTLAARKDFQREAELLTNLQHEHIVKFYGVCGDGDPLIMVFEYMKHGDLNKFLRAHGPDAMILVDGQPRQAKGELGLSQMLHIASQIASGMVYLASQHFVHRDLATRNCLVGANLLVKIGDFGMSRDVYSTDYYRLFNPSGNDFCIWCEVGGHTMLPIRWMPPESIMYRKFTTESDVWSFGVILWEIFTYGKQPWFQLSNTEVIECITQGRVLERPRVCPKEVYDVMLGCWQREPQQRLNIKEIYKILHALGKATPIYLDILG

What is called inhibition is the drop in the measured response relative to a control, in per cent. Broadly, the bioavailability is dose-corrected exposure relative to a reference, in per cent. High values mean much systemic uptake, low ones little systemic uptake. For orientation: IC50 means the midpoint of a concentration-inhibition curve. For the compound `CCCCNc1ncc2c(-c3ccc(S(=O)(=O)N4CCOCC4)cc3)cn([C@H]3CC[C@H](O)CC3)c2n1` [UNC1666], the “Anti-proliferative effects in patient samples (in words)” value in data set [1] (50 nM, co-culture with stromal cells) is “near complete induction of apoptosis and growth inhibition”. Further, the “Induction of apoptosis (in words)” value in data set [1] (72 hours, HS27 stromal co-culture) was “induce apoptosis in all patient samples”. The “Concentrations at which functional effects (decreased ability to evade apoptosis, decreased colony formation) occurred” value in data set [1] (AML patient samples that co-expressed Mer and Flt3) lay within 5 to 100 nM. In addition, the inhibition at 0.046 µM worked out at 101% in [2] and 98% in data set [7]. Further, the “Concentrations at which patient-derived myeloblasts are sensitive in methylcellulose cultures” value in data set [3] (as low as) was in the range of 5 to 50 nM. In addition, the “Colony formation (in words)” value in data set [3] (concentrations as low as 50 nM, in all but one sample, 10 days, methylcellulose) is listed as “near complete abrogation of colony formation”. For the same compound, the “Cell cycle effect (in words)” value in data set [4] is on record as “accumulation of cells in G2M phase”. For the same compound, in data set [5], the “Erk1/2, Akt and Stat5 phosphorylation” value is recorded as “near complete ablation of phosphorylation”. Moreover, the figures for the “Cells apoptotic or dead” value in [6] (50 nM) and in data set [6] (300 nM) were 54–67% and 90–98%, respectively. Further, the bioavailability in [8] is 8%. The “Viable cell number at Day 6 after replating” value in data set [9] (vehicle 10 × 10^5) is 2.0 × 10^5 viable cells/ml. The “Increase in viable cell number over six days after replating” value in [9] (vehicle 67-fold) turned out to be 13 fold. This compound also had an IC50 in [10] of 0.57 nM.
